{"source": "patent US20240261225A1", "about": "“FORMIC ACID AS PROCESSING AID IN SPRAY DRYING FOR BASIC DRUGS” (Lonza Bend Inc., priority 2021, published 2024)", "key": {"[1]": {"assay": "Gefitinib solubility in methanol and methanol:water mixtures (saturated solutions, HPLC)", "format": "physicochemical", "settings": "20° C.; for Solubility without formic acid: calculated based on densities at RT", "experimental": "Crystalline gefitinib was added in excess to methanol and methanol:water mixtures to form saturated solutions at 20° C. After 24 hour of stirring, 1 mL aliquots were centrifuged at 10'000 RCF for 3 min. The supernatant was then analyzed for gefitinib concentration by HPLC."}, "[2]": {"assay": "physchem", "settings": "21 °C, organic solvent or mixture, thermodynamic from solid, Solubility with formic acid", "experimental": "The solubility of gefitinib in solvent mixtures with 98% formic acid were obtained by suspending at RT 300 mg of crystalline gefitinib in 5 mL of solvent containing 100 microliters of formic acid at 21° C. (4.0 eq of formic acid). Both solutions were visually clear solutions at 60 mg/mL.\n5 ml of a mixture of 4.9 ml of 90:10 methanol/water w/w with 0.1 ml HCOOH weigh 4.122 g based on the densities at RT as stated below.\n5 ml of a mixture of 4.9 ml 80:20 methanol:water w/w with 0.1 ml HCOOH weigh 4.212 g based on the densities at RT as stated below.\nThe solution in the mixture of 4.9 ml of 90:10 MeOH:H2O w/w with 0.1 ml HCOOH was a visually clear solution at 72.8 mg/g based on the densities at RT as stated below.\nThe solution in the mixture of 4.9 ml of 80:20 MeOH:H2O w/w with 0.1 ml HCOOH was a visually clear solution at 71.2 mg/g based on the densities at RT as stated below.\n[Solubility with formic acid]/[Solubility without formic acid]"}, "[3]": {"assay": "physchem", "settings": "25 °C, organic solvent or mixture"}, "[4]": {"assay": "Nilotinib solubilities without and with formic acid", "settings": "for Solubility with formic acid: 4.0 molar equivalents of formic acid"}, "[5]": {"settings": "according to go.drugbank.com; cited from earlier work"}}, "data": [{"smiles": "COc1cc2ncnc(Nc3ccc(F)c(Cl)c3)c2cc1OCCCN1CCOCC1", "note": "[gefitinib]", "values": [{"measurement": "Solubility without formic acid", "setting": "[1]; MeOH:H2O 80:20 (w/w)", "result": 7.6, "unit": "mg/g"}, {"measurement": "Solubility without formic acid", "setting": "[1]; MeOH:H2O 90:10 (w/w)", "result": 7.4, "unit": "mg/g"}, {"measurement": "Solubility without formic acid", "setting": "[1]; MeOH:H2O 100:0 (w/w)", "result": 8.8, "unit": "mg/g"}, {"measurement": "solubility at 24 h", "setting": "[1]; methanol, organic solvent or mixture, thermodynamic from solid, MeOH:H2O 100:0 (w/w), read-out: Solubility without formic acid", "result": 7000, "unit": "µg/mL"}, {"measurement": "solubility", "setting": "[2]", "result": "≥ 60000", "unit": "µg/mL"}]}, {"smiles": "Cc1cn(-c2cc(NC(=O)c3ccc(C)c(Nc4nccc(-c5cccnc5)n4)c3)cc(C(F)(F)F)c2)cn1", "note": "[nilotinib]", "values": [{"measurement": "solubility", "setting": "[3]; methanol", "result": 2900, "unit": "µg/mL"}, {"measurement": "solubility", "setting": "[3]; methanol:water 90:10 (w/w)", "result": 2000, "unit": "µg/mL"}, {"measurement": "Solubility with formic acid", "setting": "[4]; MeOH:H2O 80:20 (w/w), 25° C.", "result": 8200, "unit": "µg/mL"}, {"measurement": "Solubility without formic acid", "setting": "[4]; MeOH:H2O 80:20 (w/w), 25° C.", "result": 1000, "unit": "µg/mL"}, {"measurement": "Solubility with formic acid", "setting": "[4]; MeOH:H2O 90:10 (w/w), 25° C.", "result": 8200, "unit": "µg/mL"}, {"measurement": "Solubility with formic acid", "setting": "[4]; MeOH:H2O 100:0 (w/w), 25° C.", "result": 7900, "unit": "µg/mL"}, {"measurement": "effect of addition of formic acid on solubility over the solubility in MeOH", "setting": "[4]; formic acid with and without the presence of water", "result": "increase of solubility"}, {"measurement": "basic pKa", "setting": "[5]", "result": 5.92}]}]}
